In assay [1] the test system is NF-κB pathway in THP-1 dual cells. Kind of assay: THP-1 Dual reporter assay, NF-κB pathway (SEAP). The assay is classed as cell-based. Conditions: Homo sapiens, THP1-Dual, read-out: THP1 Dual EC50 (μM) NFkB. The essentials: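 After 18 h stimulation with STING agonist, culture medium was sampled. IRF activity was read as luminescence of ISG54/ISRE-driven luciferase right after adding reagent; NF-κB activity as absorbance at 630 or 655 nm of SEAP (IFN-β minimal promoter with NF-κB elements) after 1 or 2 h at 37° C.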
For orientation: Reporter assays use an easily measured gene product as a stand-in for the process of interest.

Assay [2] concerns interferon regulatory factor (IRF) pathway in THP-1 dual cells. Kind of assay: THP-1 Dual reporter assay, IRF pathway (luciferase). Conditions: Homo sapiens, THP1-Dual, read-out: THP1 Dual EC50 (μM) IRF. The class given is cell-based. The essentials:
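Luminescence (IRF arm, luciferase under ISG54 minimal promoter with five ISREs) and absorbance at 630 or 655 nm (NF-κB arm, SEAP under IFN-β minimal promoter with NF-κB elements) were measured in supernatants of THP-1 dual cells stimulated 18 h with compound.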

The mark [3] stands for this setting: 18 h stimulation, absorbance at 630 or 655 nm.

Structures can show the parent of a compound that is named as a salt. Where two headings read alike, the source gives them in different places.

Usually EC50 stands for the concentration that produces a half-maximal response.

Take `C#CCOCCOCCOCCOCCOCCC(=O)Nc1ccc(N2CCC[C@H](N(Cc3ccnc(OC)c3)Cc3cn(C4CC4)c4cc(F)c(F)cc4c3=O)C2)cn1` [Example 4A, N-{5-[(3S)-3-{[(1-cyclopropyl-6,7-difluoro-4-oxo-1,4-dihydroquinolin-3-yl)methyl][(2-methoxypyridin-4-yl)methyl]amino}piperidin-1-yl]pyridin-2-yl}-4,7,10,13,16-pentaoxanonadec-18-ynamide]: the EC50 in assay [1] (setting [3]) is < 1 µM; in assay [2] (18 h stimulation, luminescence) it was < 1 µM.
Take `Cc1ccc(N2CCC[C@H](N(Cc3ccnc(C)c3)Cc3cn(CC(N)=O)c4ccccc4c3=O)C2)cn1` [Example 77, 2-[3-({[(3S)-1-(6-methylpyridin-3-yl)piperidin-3-yl][(2-methylpyridin-4-yl)methyl]amino}methyl)-4-oxo-1,4-dihydroquinolin-1-yl]acetamide]: the EC50 in assay [1] (setting [3]) lay within 1 to 10 µM; in assay [2] (18 h stimulation, luminescence), 1 to 10 µM.
As for `Cc1cc(CN(Cc2cn(C3CC3)c3cc(OCCO)c(F)cc3c2=O)[C@H]2CCCN(c3cccnc3)C2)ccn1` [Example 84, 1-cyclopropyl-6-fluoro-7-(2-hydroxyethoxy)-3-({[(2-methylpyridin-4-yl)methyl][(3S)-1-(pyridin-3-yl)piperidin-3-yl]amino}methyl)-1,4-dihydroquinolin-4-one hydrochloride], the EC50 in assay [1] (18 h) and in assay [2] (18 h) was < 1 µM throughout.
Consider `Cc1cc(CN(Cc2cn(C3CC3)c3cc(Cl)c(F)cc3c2=O)[C@H]2CCCN(c3ccc(C(N)=O)nc3)C2)ccn1` [Example 103, 5-[(3S)-3-{[(7-Chloro-1-cyclopropyl-6-fluoro-4-oxo-1,4-dihydroquinolin-3-yl)methyl][(2-methylpyridin-4-yl)methyl]amino}piperidin-1-yl]pyridine-2-carboxamide], for which the EC50 in assay [1] (setting [3]) is < 1 µM; in assay [2] (18 h stimulation, luminescence) it was < 1 µM.
Regarding `Cc1cc(CN(Cc2cn(C3CC3)c3cc(Cl)c(F)cc3c2=O)[C@H]2CCCN(c3ccc(C(=O)O)nc3)C2)ccn1` [Example 102], the EC50 in assay [1] (setting [3]) was 1 to 10 µM; in assay [2] (18 h stimulation, luminescence), 1 to 10 µM.
Turning to `Cc1ccc(N2CCC[C@H](N(Cc3ccnc(C)c3)Cc3cn(C4CC4)c4cc(N5CC[C@@H](N)C(F)(F)C5)c(F)cc4c3=O)C2)cn1.Cl` (single isomer, unassigned) [Example 56, 7-[(4R)-4-amino-3,3-difluoropiperidin-1-yl]-1-cyclopropyl-6-fluoro-3-({[(3S)-1-(6-methylpyridin-3-yl)piperidin-3-yl][(2-methylpyridin-4-yl)methyl]amino}methyl)-1,4-dihydroquinolin-4-one], the EC50 in assay [1] (setting [3]) was < 1 µM; in assay [2] (18 h stimulation, luminescence), < 1 µM.
On to `Cc1ccc(N2CCC[C@H](N(Cc3ccnc(C)c3)Cc3cn(C4CC4)c4cc(OCCN(C)C(=O)CCOCCOCCOCCOCCOCCOCCOCCC(=O)O)c(F)cc4c3=O)C2)cn1` [Example 11E, 1-[(2-{[1-cyclopropyl-6-fluoro-3-({[(3S)-1-(6-methylpyridin-3-yl)piperidin-3-yl][(2-methylpyridin-4-yl)methyl]amino}methyl)-4-oxo-1,4-dihydroquinolin-7-yl]oxy}ethyl)(methyl)carbamoyl]-3,6,9,12,15,18,21-heptaoxatetracosan-24-oic acid], for which the EC50 in assay [1] (setting [3]) is 1 to 10 µM; in assay [2] (18 h stimulation, luminescence), 1 to 10 µM.
With `Cc1cc(CN(Cc2cn(C3CC3)c3cc(N4CC[C@@H](O)C4)c(F)cc3c2=O)[C@H]2CCCN(c3noc(C)n3)C2)ccn1` [Example 48, 1-cyclopropyl-6-fluoro-7-[(3R)-3-hydroxypyrrolidin-1-yl]-3-({[(3S)-1-(5-methyl-1,2,4-oxadiazol-3-yl)piperidin-3-yl][(2-methylpyridin-4-yl)methyl]amino}methyl)-1,4-dihydroquinolin-4-one hydrochloride], the EC50 in assay [1] (setting [3]) is 1 to 10 µM; in assay [2] (18 h stimulation, luminescence), < 1 µM.
Regarding `Cc1ccc(N2CCC[C@H](N(Cc3ccnc(C)c3)Cc3cn(C4CC4)c4cc(N5CC[C@H](O)C5)c(F)cc4c3=O)C2)cn1` [Example 39, 1-cyclopropyl-6-fluoro-7-[(3S)-3-hydroxypyrrolidin-1-yl]-3-({[(3S)-1-(6-methylpyridin-3-yl)piperidin-3-yl][(2-methylpyridin-4-yl)methyl]amino}methyl)-1,4-dihydroquinolin-4-one hydrochloride], the EC50 in assay [1] (setting [3]) is < 1 µM; in assay [2] (18 h stimulation, luminescence), < 1 µM.
Regarding `Cc1cc(CN(Cc2cn(C3CC3)c3cc(OCCO)c(F)cc3c2=O)[C@H]2CCCN(c3ccc(Cl)nc3)C2)ccn1` [Example 97, 3-({[(3S)-1-(6-chloropyridin-3-yl)piperidin-3-yl][(2-methylpyridin-4-yl)methyl]amino}methyl)-1-cyclopropyl-6-fluoro-7-(2-hydroxyethoxy)-1,4-dihydroquinolin-4-one hydrochloride], the EC50 in assay [1] (18 h) and in assay [2] (18 h) was < 1 µM in each case.
Take `Cc1cc(CN(Cc2cn(C3CC3)c3cc(N4CC[C@H](CO)C4)c(F)cc3c2=O)[C@H]2CCCN(c3cccnc3)C2)ccn1` [Example 87, 1-cyclopropyl-6-fluoro-7-[(3S)-3-(hydroxymethyl)pyrrolidin-1-yl]-3-({[(2-methylpyridin-4-yl)methyl][(3S)-1-(pyridin-3-yl)piperidin-3-yl]amino}methyl)-1,4-dihydroquinolin-4-one hydrochloride]: the EC50 in assay [1] (setting [3]) was < 1 µM; in assay [2] (18 h stimulation, luminescence), < 1 µM.
Turning to `Cc1cc(CN(Cc2cn(C3CC3)c3cc(OCCO)c(F)cc3c2=O)[C@H]2C[C@H](F)CN(c3cnccn3)C2)ccn1` [Example 95, 1-cyclopropyl-6-fluoro-3-({[(3S,5S)-5-fluoro-1-(pyrazin-2-yl)piperidin-3-yl][(2-methylpyridin-4-yl)methyl]amino}methyl)-7-(2-hydroxyethoxy)-1,4-dihydroquinolin-4-one hydrochloride], the EC50 in assay [1] (setting [3]) was < 1 µM; in assay [2] (18 h stimulation, luminescence), < 1 µM.
Consider `Cc1ccc(N2CCC[C@H](N(Cc3ccnc(C)c3)Cc3cn(C4CC4)c4cc(-n5cnc(C(N)=O)c5)c(F)cc4c3=O)C2)cn1` [Example 64, 1-[1-Cyclopropyl-6-fluoro-3-({[(3S)-1-(6-methylpyridin-3-yl)piperidin-3-yl][(2-methylpyridin-4-yl)methyl]amino}methyl)-4-oxo-1,4-dihydroquinolin-7-yl]-1H-imidazole-4-carboxamide], for which the EC50 is < 1 µM in assay [1] (setting [3]) and < 1 µM in assay [2] (18 h stimulation, luminescence).
In the case of `Cc1ccc(N2CCC[C@H](N(Cc3ccnc(C)c3)Cc3cn(C4CC4)c4cc(N5CCOC(CO)C5)c(F)cc4c3=O)C2)cn1` (stereo partly drawn) [Example 71, 1-cyclopropyl-6-fluoro-7-[2-(hydroxymethyl)morpholin-4-yl]-3-({[(3S)-1-(6-methylpyridin-3-yl)piperidin-3-yl][(2-methylpyridin-4-yl)methyl]amino}methyl)-1,4-dihydroquinolin-4-one], the EC50 was < 1 µM in assay [1] (setting [3]) and < 1 µM in assay [2] (18 h stimulation, luminescence).
As for `COc1cc(CN(Cc2cn(C3CC3)c3cc(F)c(F)cc3c2=O)[C@H]2CCCN(c3ccc(NC(C)=O)nc3)C2)ccn1` [Example 99, N-{5-[(3S)-3-{[(1-cyclopropyl-6,7-difluoro-4-oxo-1,4-dihydroquinolin-3-yl)methyl][(2-methoxypyridin-4-yl)methyl]amino}piperidin-1-yl]pyridin-2-yl}acetamide], the EC50 in assay [1] (setting [3]) is < 1 µM; in assay [2] (18 h stimulation, luminescence), < 1 µM.
As to `Cc1ccc(N2CCC[C@H](N(Cc3ccnc(C)c3)Cc3cn(C4CC4)c4cc(OCCN(C)C(=O)CCOCCOCCOCCOCCOCCOCCOCCN)c(F)cc4c3=O)C2)cn1` [Example 11D, 1-amino-N-(2-{[1-cyclopropyl-6-fluoro-3-({[(3S)-1-(6-methylpyridin-3-yl)piperidin-3-yl][(2-methylpyridin-4-yl)methyl]amino}methyl)-4-oxo-1,4-dihydroquinolin-7-yl]oxy}ethyl)-N-methyl-3,6,9,12,15,18,21-heptaoxatetracosan-24-amide], the EC50 lay within 1 to 10 µM in assay [1] (setting [3]) and 1 to 10 µM in assay [2] (18 h stimulation, luminescence).
For the molecule `Cc1cc(CN(Cc2cn(C3CC3)c3cc(OCCO)c(F)cc3c2=O)[C@H]2CCCN(c3cncc(C(F)(F)F)c3)C2)ccn1` [Example 93, 1-cyclopropyl-6-fluoro-7-(2-hydroxyethoxy)-3-({[(2-methylpyridin-4-yl)methyl][(3S)-1-[5-(trifluoromethyl)pyridin-3-yl]piperidin-3-yl]amino}methyl)-1,4-dihydroquinolin-4-one hydrochloride], the EC50 is < 1 µM in assay [1] (setting [3]) and < 1 µM in assay [2] (18 h stimulation, luminescence).
As to `Cc1cc(CN(Cc2cn(C(C)C)c3cc(N4CC[C@@H](O)C4)ccc3c2=O)[C@H]2CCCN(c3cncnc3)C2)ccn1` [Example 59, 7-[(3R)-3-Hydroxypyrrolidin-1-yl]-3-({[(2-methylpyridin-4-yl)methyl][(3S)-1-(pyrimidin-5-yl)piperidin-3-yl]amino}methyl)-1-(propan-2-yl)-1,4-dihydroquinolin-4-one], the EC50 is > 10 µM in assay [1] (setting [3]) and > 10 µM in assay [2] (18 h stimulation, luminescence).
Take `Cc1cc(CN(Cc2cn(C3CC3)c3cc(OCCO)c(F)cc3c2=O)[C@H]2CCCN(c3cnc(C)c(F)c3)C2)ccn1` [Example 83, 1-cyclopropyl-6-fluoro-3-({[(3S)-1-(5-fluoro-6-methylpyridin-3-yl)piperidin-3-yl][(2-methylpyridin-4-yl)methyl]amino}methyl)-7-(2-hydroxyethoxy)-1,4-dihydroquinolin-4-one]: the EC50 was < 1 µM in assay [1] (setting [3]) and < 1 µM in assay [2] (18 h stimulation, luminescence).
In the case of `Cc1cc(CN(Cc2cn(C)c3ccccc3c2=O)[C@H]2CCCN(c3ccc(CCO)nc3)C2)ccn1` [Example 43, 3-({[(3S)-1-[6-(2-hydroxyethyl)pyridin-3-yl]piperidin-3-yl][(2-methylpyridin-4-yl)methyl]amino}methyl)-1-methyl-1,4-dihydroquinolin-4-one], the EC50 in assay [1] (18 h) and in assay [2] (18 h) was 1 to 10 µM each time.

Source of the values: patent US12643879B2, “Functionalized heterocyclic compounds as modulators of stimulator of interferon genes (STING)” (RYVU THERAPEUTICS S.A., priority 2019, dated 2026).
